# Tested on: ectodomain of APP695 (MBP-eAPP230-624, eAPP230-624, TRX-eAPP575-624)
# Experiment: Surface plasmon resonance (Biacore T100) binding to APP ectodomain fragments
# Protocol: We used surface plasmon resonance to assess binding of compound 14 to the APP ectodomain (eAPP) fragments was done using a Biacore T100. Biotinylated TRX-eAPP575-624 and other eAPP fragments were immobilized onto strepavidin-coated sensor CM5 chip.
# Surface plasmon resonance data was obtained with a Biacore T100 for 0-50 μM compound 14 flowed at 1 μl per min in 1% DMSO, 20 mM sodium phosphate, 125 mM sodium chloride pH 7.4 over a CM5 chip cross-linked with proteins containing fragments of the ectodomain of APP695. The three proteins were MBP-eAPP230-624—a fusion protein containing maltose binding protein and residues 230-624 of the ectodomain of APP (90-kDa), eAPP230-624—a protein that contains only residues 230-624 (45-kDa), and TRX-eAPP575-624—a fusion protein containing thioredoxin and residues 575-624 of the ectodomain (20-kDa). The proteins were produced as described in Libeu et al., (2011) J. Alzheimer's Dis., 25(3): 547-566. […] FIG. 11 compares the normalized response for the all three proteins. Comparison of the normalized curves between the proteins was done with PRISM (GraphPad Inc).
structure (smiles),measurement,setting,value
Cc1nnc(C(=O)O[C@H]2C[C@H]3CC[C@@H](C2)N3C)o1 [Compound 14],binding to the ectodomain of APP,"0-50 μM compound, 1% DMSO, 20 mM sodium phosphate, 125 mM sodium chloride pH 7.4, CM5 chip",has affinity for APP and can directly bind to the ectodomain of APP
same,normalized response curves compared between the eAPP fragments,"MBP-eAPP230-624 vs eAPP230-624 vs TRX-eAPP575-624, comparison with PRISM",not significantly different

# Reference: US11325904B2, “Tropinol esters and related compounds to promote normal processing of APP” (BUCK INSTITUTE FOR RESEARCH ON AGING, priority 2011, dated 2022)
